Paper PMC11952222, “Development and comparison of single FLT3-inhibitors to dual FLT3/TAF1-inhibitors as an anti-leukemic approach” (PLOS One, 2025)
pIC50: −log10 of the molar value. Values joined by “and” are separate entries in the source; they are usually repeats but may differ in a detail not shown here. Identical values can stand only once. Like-named read-outs stand apart in the source and are kept apart here.

What was measured:
TAF1(2) = molecular target: T1, TAF1(2) (Homo sapiens, UniProt P21675); assay: Eurofins/DiscoverX cell free bromodomain assay, percent control; format: binding; details: for per_control_1000nM TAF1(2): 1000 nM compound; for per_control_10000nM TAF1(2): 10000 nM compound
T1 construct: with specific focus on TAF1(2) bromodomain assessed by the KdELECT assay; purchased Eurofins/DiscoverX
T1 sequence (P21675 1519-1628 limits assumed): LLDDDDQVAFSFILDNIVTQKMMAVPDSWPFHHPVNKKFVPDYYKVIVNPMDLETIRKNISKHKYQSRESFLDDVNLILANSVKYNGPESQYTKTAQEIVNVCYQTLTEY
Method: (§1) The 3i-compounds underwent activity testing against a panel of 32 bromodomains using the Eurofins/DiscoverX bromoMAX assay, with specific focus on TAF1(2) bromodomain assessed by the KdELECT assay. In a similar manner, kinase activity was evaluated using a panel of 97 kinase proteins using the Eurofins/DiscoverX scanELECT and KdELECT assays, with specific focus on FLT3 protein. An 11-point 3-fold serial dilution of each test compound was prepared in 100% DMSO at 100x final test concentration and subsequently diluted to final concentration (DMSO 1%). […] Percent control was calculated using the following formula: ((test compound signal – positive control signal)/ (negative control signal – positive control signal)) × 100.

DU4475 cells = assay: Cell viability, CellTiter Glo, DU4475; format: cell-based; details: for pIC50: 72h; for CTG normalized_to_DMSO: fraction relative to DMSO
Method: (§2) Drug sensitivity and resistance testing in MOLM13, DU4475, HDQP1, and IGROV1 cells was conducted at the Finnish Institute for Molecular Medicine (FIMM), University of Helsinki. In brief, the effects of compounds on cell viability and cell death were quantified with Cell-Titer Glo (Promega) and CellTox Green (Promega), respectively. Compounds or vehicle control were included in cell culture medium at described concentrations for 72h using an automated liquid dispenser in 384-well format. For KASUMI-1 experiments, cells were grown in 96-well plates and similarly incubated with compounds at indicated concentrations for 72h in RPMI + 10% FCS + Gentamicin, followed by lysis and quantification of cell viability with Cell-Titer Glo (Promega).
(§3) Raw values from viability and toxicity assays were normalized to DMSO and plotted to heat maps in R using pheatmap (RRID:SCR_016418). Dose-response curves were generated using the drc package in R [40]. In brief, nonlinear modelling was performed to calculate IC50 values for each compound where possible and resulting curves from drc and experimental values were plotted using ggplot2 (RRID:SCR_014601).

FLT3(ITD) = assay: Eurofins/DiscoverX cell free kinase assay, percent control; format: binding; details: for per_control_1000nM FLT3(ITD): 1000 nM compound; for per_control_10000nM FLT3(ITD): 10000 nM compound
Method: as §1
(§4) Fig 2 Results of 3i-compound series at concentrations of 1 µM and 10 µM in a cell free Eurofins/DiscoverX assay for kinase and bromodomain proteins. (A) Single-targeted compounds with tyrosine kinase activity but without bromodomain activity. (B) Dual-targeted compounds with both tyrosine kinase and bromodomain activity.

PDGFRB = molecular target: T2, PDGFRB (Homo sapiens, UniProt P09619); assay: as above; format: binding; details: for per_control_1000nM PDGFRB: 1000 nM compound; for per_control_10000nM PDGFRB: 10000 nM compound
T2 construct: purchased Eurofins/DiscoverX
T2 sequence (P09619 33-1106): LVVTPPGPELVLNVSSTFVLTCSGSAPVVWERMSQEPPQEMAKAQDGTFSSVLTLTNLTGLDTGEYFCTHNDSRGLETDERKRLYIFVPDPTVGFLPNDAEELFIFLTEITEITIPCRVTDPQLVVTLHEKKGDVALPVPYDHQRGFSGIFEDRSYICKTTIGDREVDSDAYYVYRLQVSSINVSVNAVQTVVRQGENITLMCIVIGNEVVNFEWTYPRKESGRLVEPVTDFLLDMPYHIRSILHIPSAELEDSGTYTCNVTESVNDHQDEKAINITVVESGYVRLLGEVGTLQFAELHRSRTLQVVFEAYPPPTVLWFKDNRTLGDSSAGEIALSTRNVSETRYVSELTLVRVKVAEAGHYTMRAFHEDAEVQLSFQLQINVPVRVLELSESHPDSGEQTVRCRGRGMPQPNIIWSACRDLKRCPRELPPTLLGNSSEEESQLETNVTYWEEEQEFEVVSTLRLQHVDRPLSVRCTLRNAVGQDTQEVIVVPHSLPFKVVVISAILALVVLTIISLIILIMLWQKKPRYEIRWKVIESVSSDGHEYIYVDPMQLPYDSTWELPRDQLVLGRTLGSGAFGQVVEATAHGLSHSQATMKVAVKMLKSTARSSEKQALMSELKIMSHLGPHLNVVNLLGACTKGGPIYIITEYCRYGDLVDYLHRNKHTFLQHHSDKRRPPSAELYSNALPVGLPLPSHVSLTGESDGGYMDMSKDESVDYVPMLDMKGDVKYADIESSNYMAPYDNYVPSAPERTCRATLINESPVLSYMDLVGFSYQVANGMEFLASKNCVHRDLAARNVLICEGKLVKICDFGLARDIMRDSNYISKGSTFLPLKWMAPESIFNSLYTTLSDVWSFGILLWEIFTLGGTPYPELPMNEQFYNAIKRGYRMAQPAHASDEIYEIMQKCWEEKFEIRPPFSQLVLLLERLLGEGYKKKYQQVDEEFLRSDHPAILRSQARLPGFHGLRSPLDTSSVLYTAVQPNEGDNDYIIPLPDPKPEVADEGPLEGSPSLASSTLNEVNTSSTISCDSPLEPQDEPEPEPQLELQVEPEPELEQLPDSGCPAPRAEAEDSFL
Method: as §1, §4

FLT3 [1] = molecular target: T3, FLT3 (Homo sapiens, UniProt P36888); assay: as above; format: binding; details: for per_control_1000nM FLT3: 1000 nM compound; for per_control_10000nM FLT3: 10000 nM compound
T3 construct: purchased Eurofins/DiscoverX
T3 sequence (P36888 27-993): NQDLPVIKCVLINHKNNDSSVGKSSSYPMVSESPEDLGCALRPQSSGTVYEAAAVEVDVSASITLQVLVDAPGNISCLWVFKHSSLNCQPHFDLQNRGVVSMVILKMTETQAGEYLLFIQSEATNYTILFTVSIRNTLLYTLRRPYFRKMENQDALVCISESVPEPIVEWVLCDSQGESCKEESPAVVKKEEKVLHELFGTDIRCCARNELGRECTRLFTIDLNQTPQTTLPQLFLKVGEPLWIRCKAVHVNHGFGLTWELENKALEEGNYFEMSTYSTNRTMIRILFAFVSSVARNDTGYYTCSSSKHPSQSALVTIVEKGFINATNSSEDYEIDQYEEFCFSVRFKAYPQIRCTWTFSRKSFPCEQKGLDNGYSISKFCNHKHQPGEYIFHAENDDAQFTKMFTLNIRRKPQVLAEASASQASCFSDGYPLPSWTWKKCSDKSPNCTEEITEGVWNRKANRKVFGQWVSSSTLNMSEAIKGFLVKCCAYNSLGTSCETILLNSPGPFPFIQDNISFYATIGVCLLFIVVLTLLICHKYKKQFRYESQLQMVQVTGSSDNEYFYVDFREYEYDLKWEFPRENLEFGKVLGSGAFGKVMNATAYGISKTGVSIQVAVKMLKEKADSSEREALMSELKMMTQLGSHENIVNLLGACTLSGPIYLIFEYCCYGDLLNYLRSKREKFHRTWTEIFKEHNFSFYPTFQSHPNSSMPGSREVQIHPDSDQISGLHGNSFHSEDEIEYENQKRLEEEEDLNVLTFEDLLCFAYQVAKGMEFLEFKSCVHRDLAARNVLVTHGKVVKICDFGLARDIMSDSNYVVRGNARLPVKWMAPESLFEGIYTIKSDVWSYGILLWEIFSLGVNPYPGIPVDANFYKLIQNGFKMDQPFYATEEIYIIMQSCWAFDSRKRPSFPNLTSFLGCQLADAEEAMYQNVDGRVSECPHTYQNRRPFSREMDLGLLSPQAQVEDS
Method: as §1, §4

FLT3(ITD,F691L) = assay: as above; format: binding; details: for per_control_1000nM FLT3(ITD,F691L): 1000 nM compound; for per_control_10000nM FLT3(ITD,F691L): 10000 nM compound
Method: as §1, §4

FLT3(ITD,D835V) = assay: as above; format: binding; details: for per_control_1000nM FLT3(ITD,D835V): 1000 nM compound; for per_control_10000nM FLT3(ITD,D835V): 10000 nM compound
Method: as §1, §4

IGROV1 cells = assay: Cell viability, CellTiter Glo, IGROV1; format: cell-based
Method: as §2, §3

MOLM13 cells = assay: Cell viability, CellTiter Glo, MOLM13; format: cell-based; details: 72h
Method: as §2, §3

TAF1(2) bromodomain = molecular target: T4, TAF1(2) bromodomain (Homo sapiens, UniProt P21675); assay: Eurofins/DiscoverX KdELECT, TAF1(2) bromodomain IC50; format: binding; details: kdELECT, 11-point 3-fold dilution, top concentration 10,000 nM; read-out: TAF1(2) IC50
T4 construct: with specific focus on TAF1(2) bromodomain assessed by the KdELECT assay; purchased Eurofins/DiscoverX
T4 sequence (P21675 1519-1628 limits assumed): T1 sequence (P21675 1519-1628 limits assumed)
Method: as §1

FLT3 [2] = molecular target: T3, FLT3; assay: Eurofins/DiscoverX KdELECT, FLT3 kinase IC50; format: binding; details: 11-point 3-fold dilution, top concentration 10,000 nM
Method: as §1

HDQP1 cells = assay: Cell viability, CellTiter Glo, HDQP1; format: cell-based
Method: as §2, §3

[3] = one independent experiment per value, read-out: DU4475 IC50, individual dose-response curve (CellTiter Glo)
[4] = Homo sapiens, DU-4475, 72 h, mean of n = 3 independent experiments, read-out: DU4475 IC50 (CellTiter Glo)
[5] = Homo sapiens, DU-4475, 72 h, one independent experiment per value, read-out: DU4475 IC50, individual dose-response curve (CellTiter Glo)
[6] = 72h, one independent experiment per value, read-out: IGROV1 IC50, individual dose-response curve (CellTiter Glo)
[7] = Homo sapiens, IGROV-1, 72 h, one independent experiment per value, read-out: IGROV1 IC50, individual dose-response curve (CellTiter Glo)
[8] = one independent experiment per value, read-out: MOLM13 IC50, individual dose-response curve (CellTiter Glo)
[9] = Homo sapiens, MOLM-13, 72 h, mean of n = 3 independent experiments, read-out: MOLM13 IC50 (CellTiter Glo)

Row | SMILES | per_control_1000nM TAF1(2) (TAF1(2)) | per_control_10000nM TAF1(2) (TAF1(2)) | pIC50 (DU4475 cells; [3]) | pIC50 (DU4475 cells; [4]) | pIC50 (DU4475 cells; [5]) | per_control_1000nM FLT3(ITD) (FLT3(ITD)) | per_control_10000nM FLT3(ITD) (FLT3(ITD)) | per_control_1000nM PDGFRB (PDGFRB) | per_control_10000nM PDGFRB (PDGFRB) | per_control_1000nM FLT3 (FLT3 [1]) | per_control_10000nM FLT3 (FLT3 [1]) | per_control_1000nM FLT3(ITD,F691L) (FLT3(ITD,F691L)) | per_control_10000nM FLT3(ITD,F691L) (FLT3(ITD,F691L)) | per_control_1000nM FLT3(ITD,D835V) (FLT3(ITD,D835V)) | per_control_10000nM FLT3(ITD,D835V) (FLT3(ITD,D835V)) | pIC50 (IGROV1 cells; [6]) | pIC50 (IGROV1 cells; [7]) | pIC50 (MOLM13 cells; [8]) | pIC50 (MOLM13 cells; [9]) | pIC50 (TAF1(2) bromodomain) | further results
1 | COc1ccc(-c2cc(NC(=O)c3ccc(C(C)(C)C)cc3)[nH]n2)cc1 [Compound 3i-1103] | 21 percent control | 2.6 percent control | 4.74 and 4.72 | 4.70 | 4.66 | 1.2 percent control | 2.1 percent control | 0 percent control | 0 percent control | 0 percent control | 0 percent control | 38 percent control | 9.4 percent control | 42 percent control | 6 percent control | < 4.52 | 4.75 | 7.03 and 7.09 and 6.72 | 6.92 | 6.32 | CTG normalized_to_DMSO (DU4475 cells; DU4475, exp 1, 0.3 µM): 1.0025; CTG normalized_to_DMSO (DU4475 cells; DU4475, exp 1, 1 µM): 0.9677; CTG normalized_to_DMSO (DU4475 cells; DU4475, exp 1, 3 µM): 0.8934; CTG normalized_to_DMSO (DU4475 cells; DU4475, exp 1, 10 µM): 0.6779; CTG normalized_to_DMSO (DU4475 cells; DU4475, exp 1, 30 µM): 0.07396; pIC50 (FLT3 [2]): > 6.00
2 | Cc1cc(-c2cc(NC(=O)c3ccc(C(C)(C)C)cc3)[nH]n2)ccn1 [Compound 3i-1246, 4-(tert-butyl)-N-(3-(2-methylpyridin-4-yl)-1H-pyrazol-5-yl)benzamide] | 4.1 percent control | 3.6 percent control | 5.12 and 5.11 | 5.12 | 5.15 | 2.7 percent control | 1.2 percent control | 0 percent control | 0 percent control | 0 percent control | 0.2 percent control | 3.3 percent control | 1.6 percent control | 0.55 percent control | 0.2 percent control | 4.94 and 5.06 | 4.92 | 6.74 and 6.37 and 6.57 | 6.53 | 6.55 and 6.59 | pIC50 (IGROV1 cells; Homo sapiens, IGROV-1, 72 h, mean of n = 3 independent experiments, read-out: IGROV1 IC50 (CellTiter Glo)): 4.96; pIC50 (HDQP1 cells; 72h, mean of n = 3 independent experiments, read-out: HDQP1 IC50 (CellTiter Glo)): < 5.00; pIC50 (HDQP1 cells; 72h, one independent experiment per value, read-out: HDQP1 IC50, individual dose-response curve (CellTiter Glo)): 4.98 and 4.71; pIC50 (HDQP1 cells; Homo sapiens, HDQ-P1, 72 h, mean of n = 3 independent experiments, read-out: HDQP1 IC50 (CellTiter Glo)): 4.87; pIC50 (HDQP1 cells; Homo sapiens, HDQ-P1, 72 h, one independent experiment per value, read-out: HDQP1 IC50, individual dose-response curve (CellTiter Glo)): 5.00; pIC50 (FLT3 [2]): 7.74
